From patent US12642771B2, “Compositions comprising PGI2-receptor agonists and processes for the preparation thereof” (Arena Pharmaceuticals, Inc., priority 2017, dated 2026)

Tests used:
[1] = Example 8: 22-week randomized, double-blind, placebo-controlled study (PVR, 6MWD, plasma levels, adverse events); type: in vivo, human
Experimental: A 22-week randomized, double-blind, placebo-controlled study with a dose titration period of up to 9 weeks was conducted. Sixty-one patients were randomized 2:1 Compound 1 to placebo. Right Heart Catheterization (RHC) measurements were obtained prior to study Day 1 of the dose titration period and at Week 22. The following values were obtained and recorded: pulmonary artery pressure (PAP) (systolic, diastolic, and mean), heart rate (HR), right atrial pressure (RAP), pulmonary capillary wedge pressure (PCWP) right ventricular pressure (RVP) and cardiac output (CO), pulmonary vascular resistance (PVR), arterial and mixed venous oxygen saturation […] (if applicable). Systemic vascular resistance (SVR) was estimated from blood pressure measurements. The 6-minute walk test (6MWD) was conducted according to the modified guidelines issued by the American Thoracic Society. See Am J Respir Crit Care Med 166:111-117, 2002.
Primary efficacy endpoints for the study were: a) change from baseline in PVR after 22 weeks of treatment, and b) change from baseline in 6 MWD after 22 weeks of treatment.
Compound 1 was administered as a capsule in 0.01, 0.02, 0.03, 0.04, and 0.10 mg dose strengths. The formulation was supplied as a liquid-filled, size 4, hard-gelatin capsule containing Compound 1, polyoxyl 40 hydrogenated castor oil (Kolliphor® RH40) NF, butylated hydroxytoluene (BHT)NF, and colloidal silicon dioxide NF.
The starting dose of Compound 1 was 0.01 mg twice daily. The dose of Compound 1 was titrated according to patient tolerability. If the initial dose was tolerated (0.01 mg twice daily), then the dose was increased once a week in the following fashion: 0.02 mg twice daily, 0.03 mg twice daily, 0.04 mg twice daily, 0.06 mg twice daily, 0.08 mg, 0.1 mg twice daily, 0.2 mg twice daily and 0.3 mg twice daily. The dose was optionally escalated to a possible maximum total daily dose of 0.6 mg (0.3 mg twice daily), pending tolerability.

[2] = Release (dissolution) profile of capsules, USP Apparatus 2 (paddle) at 50 rpm, 500 mL aqueous sodium phosphate 0.05 M, pH 6.8; type: physicochemical; settings: for Release rate (percentage of Compound 1 released): Table 3b, capsule 0.04 mg Compound 1, Poloxamer 188:food grade GMS 50:50
Excerpt: USP Apparatus 2 (Paddle Apparatus) is described, for example, in the United States Pharmacopeial Convention, Feb. 1, 2012, Chapter <711> (“Dissolution”), incorporated by reference herein in its entirety. See http://www.usp.org/sites/default/files/usp_pdf/EN/USPNF/revisions/m99470-gc_711.pdf. The assembly from Apparatus 1 is used, except that a paddle formed from a blade and a shaft is used as the stirring element. The shaft is positioned so that its axis is not more than 2 mm from the vertical axis of the vessel at any point and rotates smoothly without significant wobble that could affect the results. The vertical center line of the blade passes through the axis of the shaft so that the bottom of the blade is flush with the bottom of the shaft. A distance of 25±2 mm between the bottom of the blade and the inside bottom of the vessel is maintained during the test. The metallic or suitably inert, rigid blade and shaft comprise a single entity. A suitable two-part detachable design may be used provided the assembly remains firmly engaged during the test. The paddle blade and shaft may be coated with a suitable coating so as to make them inert. The dosage unit is allowed to sink to the bottom of the vessel before rotation of the blade is started. A small, loose piece of nonreactive material, such as not more than a few turns of wire helix, may be attached to dosage units that would otherwise float. Other validated sinker devices may be used.
Unless otherwise specified, the release profiles for capsules were measured using USP Apparatus 2 (paddle).
All release profiles disclosed in Tables 3c-3p were measured with USP Apparatus 2 (paddle) at 50 rpm in 500 mL of aqueous sodium phosphate at a concentration of 0.05 M (pH=6.8). The values in a given table relate to capsules obtained from the same batch. Values shown represent mean values over a number of dissolution tests (“n” in each table) in each case.

## O=C(O)COC[C@H]1CC[C@H](COC(=O)N(c2ccccc2)c2ccc(Cl)cc2)CC1 [Compound 1, 2-(((1r,4r)-4-(((4-chlorophenyl)(phenyl)carbamoyloxy)methyl)cyclohexyl)methoxy)acetic acid]
[1]; 22-week study
  Adverse events: consistent with other prostacyclin treatments
[1]; after 22 weeks of treatment
  6-minute walk distance (6MWD): numerical improvement
[1]; after 22 weeks of treatment, capsule twice daily, titrated up to 0.3 mg twice daily
  change from baseline in pulmonary vascular resistance (PVR) compared to placebo: statistically significant change from baseline
[1]; immediate-release capsule twice daily, titrated, patients
  mean pre-dose and 4-hours post-dose plasma levels: appear similar to those previously observed in healthy human subjects
[1]; in vivo
  correlation of 4 hour post-dose plasma concentrations with percent change from baseline in PVR and 6MWD: strong and positive correlation
[2]; 0.04 mg Compound 1 in Gelucire 50/13, storage at 40° C. and 75% RH for two weeks (FIG. 5)
  change of release rate after storage: rapid increase in release rate
[2]; 1 wk storage (40° C.), 30 min
  Release rate (percentage of Compound 1 released): 11.1%
[2]; 1 wk storage (40° C.), 60 min
  Release rate (percentage of Compound 1 released): 22.6%
[2]; 1 wk storage (40° C.), 120 min
  Release rate (percentage of Compound 1 released): 40.1%
[2]; 1 wk storage (40° C.), 180 min
  Release rate (percentage of Compound 1 released): 59.7%
[2]; 1 wk storage (40° C.), 240 min
  Release rate (percentage of Compound 1 released): 71.8%
[2]; 1 wk storage (40° C.), 360 min
  Release rate (percentage of Compound 1 released): 88.4%
[2]; 1 wk storage (40° C.), 480 min
  Release rate (percentage of Compound 1 released): 92.2%
[2]; 1 wk storage (40° C.), 600 min
  Release rate (percentage of Compound 1 released): 96.7%
[2]; 1 wk storage (40° C.), 720 min
  Release rate (percentage of Compound 1 released): 95.3%
[2]; 1 wk storage (40° C.), 735 min
  Release rate (percentage of Compound 1 released): 96.1%
[2]; 2 wks storage (40° C.), 30 min
  Release rate (percentage of Compound 1 released): 10.8%
[2]; 2 wks storage (40° C.), 60 min
  Release rate (percentage of Compound 1 released): 18.3%
[2]; 2 wks storage (40° C.), 120 min
  Release rate (percentage of Compound 1 released): 36.8%
[2]; 2 wks storage (40° C.), 180 min
  Release rate (percentage of Compound 1 released): 52.9%
[2]; 2 wks storage (40° C.), 240 min
  Release rate (percentage of Compound 1 released): 67.4%
[2]; 2 wks storage (40° C.), 360 min
  Release rate (percentage of Compound 1 released): 83.3%
[2]; 2 wks storage (40° C.), 480 min
  Release rate (percentage of Compound 1 released): 90.3%
[2]; 2 wks storage (40° C.), 600 min
  Release rate (percentage of Compound 1 released): 93.8%
[2]; 2 wks storage (40° C.), 720 min
  Release rate (percentage of Compound 1 released): 93.7%
[2]; 2 wks storage (40° C.), 735 min
  Release rate (percentage of Compound 1 released): 94.3%
[2]; 4 wks storage (40° C.), 30 min
  Release rate (percentage of Compound 1 released): 7.3%
[2]; 4 wks storage (40° C.), 60 min
  Release rate (percentage of Compound 1 released): 17.7%
[2]; 4 wks storage (40° C.), 120 min
  Release rate (percentage of Compound 1 released): 37.4%
[2]; 4 wks storage (40° C.), 180 min
  Release rate (percentage of Compound 1 released): 54.6%
[2]; 4 wks storage (40° C.), 240 min
  Release rate (percentage of Compound 1 released): 70.3%
[2]; 4 wks storage (40° C.), 360 min
  Release rate (percentage of Compound 1 released): 87.5%
[2]; 4 wks storage (40° C.), 480 min
  Release rate (percentage of Compound 1 released): 90.9%
